Entries after “also recorded” stand apart in the source; their conditions may differ.
Key:
aquaporin 4 (AQP4) = experiment: AQP4 / CD31 immunostaining of brain sections; type: in vivo, mice
Procedure: Mouse fresh frozen brain sections were fixed with 4% PFA for 30 min, rinsed in dH2O and submitted to a heat-induced antigen retrieval step with 10 mM citrate buffer for 20 min. […] The steps described next were generally applied for mouse fresh frozen or fixed free-floating brain sections, lymph node sections on slide, meningeal whole-mounts and human fixed tissue. For immunofluorescence staining, tissue was rinsed in PBS and washed with PBS 0.5% Triton-X-100 for 10 min, followed by incubation in PBS 0.5% Triton-X-100 containing 0.5% of normal serum (either goat or chicken) and 0.5% bovine serum albumin (BSA) for 1 hour at RT. This blocking step was followed by incubation with appropriate dilutions of primary antibodies: anti-LYVE-1 eFluor 660 or anti-LYVE-1 Alexa Fluor® 488 (eBioscience, clone ALY7, 1:200), anti-CD31 (Millipore Sigma, MAB1398Z, clone 2H8, 1:200), anti-IBA1 (Abcam, ab5076, 1:300), anti-GFAP (Millipore Sigma, ab5541, 1:300), anti-AQP4 (Millipore Sigma, A5971, 1:200), anti-Ki67 (Abcam, ab15580, 1:100), anti-hAβ1-16 (BioLegend, clone 6E10, 1:200), anti-Aβ1-37/42 (Cell Signaling, clone D54D2, 1:300) and anti-GFP (Abcam, ab6556, 1:300) in PBS 0.5% Triton-X-100 containing 0.5% of normal serum and 0.5% BSA overnight at 4° C. Meningeal whole-mounts or tissue sections were then washed 3 times for 5 min at RT in PBS 0.5% Triton-X-100 followed by incubation with the appropriate chicken, goat or donkey Alexa Fluor® 488, 546, 594, or 647 anti-rat, -goat, -rabbit, -mouse or -Armenian hamster IgG antibodies (Thermo Fisher Scientific, 1:500) for 1 or 2 hours at RT in PBS 0.5% Triton-X-100. After an incubation for 10 min with 1:2000 DAPI in PBS, the tissue was washed 3 times for 5 min with PBS at RT and mounted with Aqua-Mount (Lerner) and glass coverslips. Preparations were stored at 4° C. for no more than 1 week until images were acquired either using a widefield microscope (Leica) or a confocal microscope (FV1200 Laser Scanning Confocal Microscope, Olympus). Quantitative analysis using the acquired images was performed on FIJI software. For the assessment of brain fluorescent tracer influx or efflux or AQP4 coverage, 10 representative brain sections were imaged using the widefield microscope and the mean area fraction was calculated using Microsoft Excel. […] Area of coverage by CD31^+ blood vessels and AQP4^+ astrocyte endfeet in the brain cortex was achieved by calculating the mean value of 10 representative fields (5 images in each cerebral hemisphere) per sample acquired using the confocal microscope.

[1] = tested on: meningeal lymphatic vessels; experiment: Meningeal whole-mount immunostaining (LYVE-1/CD31): lymphatic vessel area and diameter, blood vessel coverage
Procedure: Selective ablation of the meningeal lymphatic vessels was achieved by i.c.m. injection and transcranial photoconversion of Visudyne® (verteporfin for injection, Valeant Ophtalmics). Visudyne was reconstituted following manufacturer instructions and 5 μL was injected i.c.m. following the previously described procedure. […] Each spot was irradiated with a light dose of 50 J/cm^2 at an intensity of 600 mW/cm^2 for a total of 83 s. Controls were injected with the same volume of Visudyne (without the photoconversion step) or sterile saline plus photoconversion (vehicle/photoconversion). The scalp skin was then sutured, the mice were subcutaneously injected with ketoprofen (2 mg/Kg) and allowed to recover on a heating pad until fully awake.
A hydrogel of 1.4% hyaluronic acid and 3% methylcellulose alone (vehicle) or with 200 ng/mL of encapsulated human VEGF-C (PeproTech) or VEGF-C156S (R&D Systems) was prepared as described elsewhere^49. Briefly, lyophilized, sterile methylcellulose (4000 cP, Sigma-Aldrich) and sterile hyaluronic acid (1500-1800 kDa, Sigma-Aldrich) were sequentially dissolved in sterile 0.1 M phosphate buffered saline (PBS) at 4° C. overnight. Lyophilized VEGF-C or VEGF-C156S were resuspended as particulate at 2000 ng/mL in 0.5% sterile methylcellulose in PBS. The particulate solution, or vehicle 0.5% methylcellulose, was mixed into the hydrogel pre-solution at 1:10, and loaded into a syringe for gelation at 37° C. […] The hydrogels were prepared on the day of the experiment and kept warm inside the individual syringes until applied onto the mouse's skull. […] An incision was made in the scalp skin and the skull was thinned at the junction of all sinuses and above the transverse sinus. The shear-thinning properties of the polymers allowed the extrusion of 100 μL of each hydrogel solution from the syringe into the thinned skull surface. The scalp skin was then sutured on top of the solidified hydrogel, the mice were subcutaneously injected with ketoprofen (2 mg/Kg) and allowed to recover on a heating pad until fully awake.
Mice were given a lethal dose of anesthetics by intraperitoneal (i.p.) injection of Euthasol (10% v/v in saline). When needed, CSF was collected from the cisterna magna using a 0.5 mm diameter borosilicate glass pipette with internal filament and immediately stored at −80° C. Mice were then transcardially perfused with ice cold PBS with heparin (10 U/mL). Deep cervical lymph nodes were dissected and drop fixed in 4% paraformaldehyde (PFA) for 12 hours at 4° C. After stripping the skin and muscle from the bone the head was collected and drop fixed in 4% PFA. […] The brains were kept in 4% PFA for additional 24 hours (48 hours in total). […]

mice = experiment: Morris water maze test; type: in vivo; conditions: Visudyne/photoconversion twice, adult mice
Procedure: The Morris water maze test was performed as described before^53, but with modifications. Mice were transported to the behavior room to habituate at least 30 min before starting the test. The MWM test consisted of 4 days of acquisition, 1 day of probe trial and 2 days of reversal. In the acquisition, mice performed four trials per day, for 4 consecutive days, to find a hidden 10-cm diameter platform located 1 cm below the water surface in a pool 1 m in diameter. Tap water was made opaque with nontoxic tempera white paint and the water temperature was kept at 23±1° C. A dim light source was placed within the testing room and only distal visual cues were available above each quadrant of the swimming pool to aid in the spatial navigation and location of the submerged platform. The latency to platform, e.g., the time required by the mouse to find and climb onto the platform, was recorded for up to 60 s. Each mouse was allowed to remain on the platform for 20 s and was then moved from the maze to its home cage. […] During the acquisition, probe and reversal, data were recorded using the EthoVision automated tracking system (Noldus Information Technology). The mean latency (in s) of the four trials was calculated for each day of test. The % of time in the platform quadrant was calculated for the probe trial. […] The mean % of allocentric navigation of four trials was calculated for each day.

[2] = Visudyne-treated vs vehicle-treated mice

verteporfin [Visudyne]
area of AQP4+ astrocytic endfeet in brain cortex (aquaporin 4 (AQP4); Visudyne vs vehicle): No changes were observed | area of CD31+ blood vessels in brain cortex (aquaporin 4 (AQP4); Visudyne vs vehicle): No changes were observed | ratio between area of AQP4+ and of CD31+ (aquaporin 4 (AQP4); Visudyne vs vehicle): No changes were observed | overall brain coverage by AQP4 (area fraction) (aquaporin 4 (AQP4); [2]): could not detect changes; also recorded: no differences between groups | perivascular localization of AQP4+ astrocytic endfeet (aquaporin 4 (AQP4); [2]): could not detect changes | ablation of meningeal lymphatics (LYVE-1+ lymphatic vessels) ([1]; Visudyne 5 μL i.c.m. + transcranial photoconversion, adult mice): loss of meningeal vessel staining; also recorded: effective ablation of meningeal lymphatics | duration of meningeal lymphatic ablation ([1]; Visudyne i.c.m. + transcranial photoconversion): at least 7 days | MWM spatial learning (mice): significant deficits in spatial learning

From US12352767B2, “Method of treating cognitive decline associated with neurological diseases based on a decrease in FLT4 expression or activity” (University of Virginia Patent Foundation, priority 2018, dated 2025)
